Patent US9051248B2, “Methods, compounds, and compositions for delivering 1,3-propanedisulfonic acid” (BHI Limited Partnership, priority 2009, dated 2015)
Where two headings read alike, the source gives them in different places. One block for each molecule: values may come before it.

Key:
[1] = Human whole blood stability; type: in vitro ADME; conditions: fresh human whole blood, 37° C.; for Conversion to 1,3PDS (% by molar ratio) 0 h: about 100 μg/mL
Procedure: The objective of this test was to determine the stability of the prodrugs in fresh human whole blood at different time-points (0, 0.5, 1, 4, 24 hours). Blood samples were incubated in a shaking water bath at 37° C. for up to 24 hours. The compound (prodrug) was added at Time-point 0, and sample aliquots were withdrawn and analyzed at each time point to determine the concentration of 1,3PDS. If possible, the loss of compound was determined by the amounts of compound determined at each time point compared to the amount determined at Time-point 0. To eliminate the conversion due to the matrix, a special Time-point 0 was prepared in pre-extracted blood sample.
Approximately 2.5 mL of whole blood was incubated in a gently shaking water bath at 37° C. for 15 minutes. Two (2) mL of the pre-incubated whole blood were aliquoted in an eppendorf tube. A 100 μL aliquot of blood was removed and 100 μL of the compound Stock Solution was added. The solution was mixed by inversion. This sample was referred to as Tube A. The final concentration of the compound in tube A was approximately at 100 μg/mL. Immediately after mixing, 100 μL of Tube A was aliquotted into 3 different eppendorf tubes. These samples were extracted as described in the “Extraction Procedure” Section. These samples were referred to Time-point 0. Thereafter, the incubation of Tube A was continued in the shaking water bath at 37° C. for 0.5, 1, 4 and 24 hours. At each specific time point of incubation, aliquots (triplicate) of 100 μL were removed and extracted as described in the “Extraction Procedure” Section. To avoid potential further degradation of compound and/or possible degradation products, the aliquot extracts were kept on ice until analysis. After extraction, samples were analyzed using LC-MS/MS method.
A volume of 300 μL of cold-ice acetonitrile was added to a 1.5 mL eppendorf tube and kept on ice until utilization. 100 μL of the sample to be extracted was added and the mix was vortexed (acetonitrile and blood). The sample was centrifuged at 16250×g (13200 rpm on IEC centrifuge with eppendorf rotor) for 5 minutes. A volume of 250 μL of the supernatant was transferred to another tube and evaporated to dryness under a nitrogen stream. The residue was reconstituted with the mobile phase. This sample was then analyzed according to 1,3PDS specific methods.
The concentrations of 1,3PDS were calculated based on the nominal concentration of the calibration standards and their respective peak area ratio. A linear regression using a weight of 1/x^2 is used to derive the concentration of 1,3PDS. The % appearance of 1,3PDS was determined by the amounts of compound determined at each time point compared to nominal concentration (100%) of 1,3PDS generated by 100% of the prodrug (equivalent concentration).

[2] = Simulated gastric fluid (SGF) stability; type: in vitro ADME; conditions: SGF pH 1.5 with pepsin, 37° C.
Procedure: (§1) The objective of this test was to determine the stability of the prodrugs in simulated gastric fluid (SGF) and water at 37° C. up to 2 hours and in water at room temperature up to 24 hours.
(§2) Simulated gastric fluid and water samples were incubated in a shaking water bath at 37° C. for up to 2 hours. The compound (prodrug) was added at Time-point 0. At each selected time point (refer to table), sample aliquots were withdrawn and analyzed to determine the concentration of 1,3-propanedisulfonic acid (1,3PDS). The concentrations of 1,3PDS were calculated based on their respective peak area. The % appearance of 1,3PDS was determined by the amounts of compound determined at each time point compared to nominal concentration (100%) of 1,3PDS generated by 100% of the prodrug (equivalent concentration).
Amounts of 0.2 g of sodium chloride and 0.32 g of pepsin were weighted and transferred into a 100-mL volumetric flask. Approximately 50 mL of deionized water was added and the mixture well mixed. A volume of 700 μL of hydrochloric acid was added, and the volume completed to 100 mL with deionized water. The resulting mixture was transferred in a polypropylene bottle and pH measured (pH=1.5).
A fresh stock solution at approximately 2 mg/mL of the compound was prepared. One stability solution at 200 μg/mL in the SGF was prepared (sample referred to as Tube A). […] Immediately after preparation, each 200 μg/mL solution was diluted in triplicates to 20 μg/mL in deionized water and analyzed using LC-MS/MS method (Time-point 0). […] At each specific time point of incubation, 3 aliquots (triplicate) of 50 μL were removed, diluted in 450 μL of water and analyzed using LC-MS/MS method. […]
(§3) The concentrations of 1,3PDS were calculated based on response of the reference samples and their respective peak area response. The % appearance of 1,3PDS was determined by the amounts of compound determined at each time point compared to expected nominal concentration (100%) of 1,3PDS generated by 100% of the prodrug (equivalent concentration).

[3] = Water stability (conversion of prodrug to 1,3PDS); type: physicochemical; conditions: deionized water; for Conversion to 1,3PDS (%) 1 h / Conversion to 1,3PDS (%) 2 h: 37° C.; for Conversion to 1,3PDS (%) 0 h / Conversion to 1,3PDS (%) 24 h: room temperature; for Conversion to 1,3PDS (%) 0 h: 200 μg/mL
Procedure: as §1, §2
A fresh stock solution at approximately 2 mg/mL of the compound was prepared. One stability solution at 200 μg/mL in the SGF was prepared (sample referred to as Tube A). A stability solution at 200 μg/mL in deionized water was prepared (sample referred to as Tube B). Immediately after preparation, each 200 μg/mL solution was diluted in triplicates to 20 μg/mL in deionized water and analyzed using LC-MS/MS method (Time-point 0). Thereafter, the incubation of tubes A and B was continued in the shaking water bath at 37° C. for 1 and 2 hours while one aliquot of tube B was kept at room temperature for 24 hours. At each specific time point of incubation, 3 aliquots (triplicate) of 50 μL were removed, diluted in 450 μL of water and analyzed using LC-MS/MS method. In parallel, 3 reference samples of 1,3PDS at 100, 10 and 1 μg/mL were prepared, diluted in triplicate in water and injected at the beginning and at the end of the batch. These samples were considered as reference samples.
as §3

[4] = PK study in rats (1,3PDS plasma AUC after oral administration of prodrugs); conditions: rat plasma, oral gavage, dose molar equivalent to 100 mg/kg 1,3PDS(2Na)
[5] = rat, in vivo, po, 100 mg/kg
[6] = vehicle 2 0.5% Methocel in water

Conversion to 1,3PDS (% by molar ratio) 0.5 h [1]: 0.1 % by molar ratio
Conversion to 1,3PDS (% by molar ratio) 1 h [1]: 0.2 % by molar ratio
Conversion to 1,3PDS (% by molar ratio) 4 h [1]: 0.4 % by molar ratio
Conversion to 1,3PDS (% by molar ratio) 24 h [1]: 2.0 % by molar ratio
Conversion to 1,3PDS (% by molar ratio) 0 h [1]: 0.1 % by molar ratio
Conversion to 1,3PDS (%) 0 h ([2]; 0 h): 0.0%
Conversion to 1,3PDS (%) 1 h ([2]; 1 h): 0.0%
Conversion to 1,3PDS (%) 2 h ([2]; 2 h): 0.0%
Conversion to 1,3PDS (%) 1 h [3]: 0.1%
Conversion to 1,3PDS (%) 2 h [3]: 0.1%
Conversion to 1,3PDS (%) 0 h [3]: 0.0%
Conversion to 1,3PDS (%) 24 h [3]: 0.0%
1,3PDS AUC0-Tlast ([4]; vehicle 1 water): 1097 ng·h/mL
SMILES: COC(=O)c1ccccc1OS(=O)(=O)CCCS(=O)(=O)O [A32(Na)]

SMILES: CCOP(=O)(OCC)OCC(C)(C)COS(=O)(=O)CCCS(=O)(=O)[O-].[Na+] [A66(Na)]
1,3PDS AUC0-Tlast [4, 6]: BLLQ

1,3PDS AUC0-Tlast [4, 6]: BLLQ
SMILES: CC(CO)(CO)COS(=O)(=O)CCCS(=O)(=O)O [A68(Na)]

1,3PDS AUC0-Tlast [4, 6]: BLLQ
SMILES: CC(C)(C#N)COS(=O)(=O)CCCS(=O)(=O)OCC(C)(C)C#N [Compound B71]

SMILES: CC(C)(COS(=O)(=O)CCCS(=O)(=O)OCC(C)(C)[N+](=O)[O-])[N+](=O)[O-] [Compound B72]
1,3PDS AUC0-Tlast [5]: BLLQ

SMILES: CC(C)(C)C(C#N)OS(=O)(=O)CCCS(=O)(=O)OC(C#N)C(C)(C)C (stereo not shown) [Compound B84]
1,3PDS AUC0-Tlast ([5]; male, Sprague-Dawley): 2953 ng·h/mL

Conversion to 1,3PDS (% by molar ratio) 0.5 h [1]: AULQ
Conversion to 1,3PDS (% by molar ratio) 1 h [1]: AULQ
Conversion to 1,3PDS (% by molar ratio) 4 h [1]: AULQ
Conversion to 1,3PDS (% by molar ratio) 24 h [1]: AULQ
Conversion to 1,3PDS (% by molar ratio) 0 h [1]: AULQ
Conversion to 1,3PDS (%) 1 h [3]: 57.3%
Conversion to 1,3PDS (%) 2 h [3]: 63.1%
Conversion to 1,3PDS (%) 0 h [3]: 50.3%
Conversion to 1,3PDS (%) 24 h [3]: 61.2%
SMILES: O=S1(=O)CCCS(=O)(=O)O1 [Compound C1]

1,3PDS AUC0-Tlast [4, 6]: BLLQ
SMILES: O=S(O)CCCS(=O)O [P1(2Na)]
